1 molecule from patent US6991804B2, “Delivery systems for periadventitial delivery for treatment of restenosis and anastomotic intimal hyperplasia” (Edwards Lifesciences Corporation, priority 2000, dated 2006) can be followed below.

Marks after values point to notes of the source that are not given here.

For data set [1], the system named is Balloon-injured Femoral Arteries. As to the kind of experiment: Balloon-injured femoral arteries: lumenal width by angiography. In kind it is in vivo, Dogs. The conditions noted are these: 12 weeks. How it is done:
(§1) Balloon injury to the femoral arteries by three sequences of inflation and removal of a 4 Fr. Fogarty catheter generated 5 cm lesions in each femoral artery that were or were not treated with test/control articles. Injured areas were tagged with a staple. The insertion site was repaired and the animal was closed.
Angiography of the femoral arteries was performed at the termination of the experiment. Images were captured as described above and analyzed using NIH Image. Injured areas were identified by radio-opaque clips, and by anatomy. The lumenal widths of the arterial segments were measured just distal to the arteriotomy, and in the mid- and distal portions of the injured segments. The percent stenoses of the anastomoses relative to the adjacent native arterial segment were reported. The mean and least values were reported.
Images from angiography were captured and analyzed as described previously. The lumenal widths of the arterial segments were measured immediately distal to the arteriotomy, and in the mid- and distal portions of the injured segments.

The test system is the same in data set [2]. As to the kind of experiment: Balloon-injured femoral arteries: morphometric analysis of histology (media, intima, lumen area). In kind it is in vivo, Dogs. How it is done:
as §1
Carotid arteries were exposed and the healing response was evaluated. The grafts, including anastomoses, were fixed under pressure in situ, and were removed along with 4 cm of proximal and distal host vessel. Femoral arteries were exposed and the healing response was observed. The femoral arteries were then fixed under pressure and removed with distal and proximal host tissue. Femoral and carotid arteries were stored in 10% neutral-buffered formalin until analysis by histology. Specimens for histological evaluation were processed and stained with Hematoxalin and Eosin and with Mallory's Trichrome by IDEXX Veterinary Services, West Sacramento, Calif.
Histology of the femoral arteries was analyzed with Adobe Photoshop. Briefly, (1) the lumen-vessel interface, (2) the internal elastic lamina, and (3) the external elastic lamina were traced on digital images from H&E stained tissue with the greatest amount of hyperplasia. The intimal area was determined by subtracting the area encompassing […]. The medial area was determined by subtracting the area encompassing (2) from (3). The area was measured as (1).
Histology of sections from areas spanning proximal and distal regions of the balloon-injured femorals and of native tissue proximal to the arteriotomy were evaluated by morphometric analysis as described above.

The subject of data set [3] is Carotid Vein Grafts. Description: Carotid vein grafts (femoral vein interposition, end-to-side anastomoses): percent stenoses of anastomoses by angiography. In kind it is in vivo, Dogs. How it is done:
The animal was heparinized (100 IU/kg body weight), and anticoagulated at the surgeon's discretion with additional heparin. The carotid artery was cross-clamped and transected. An interpositional graft with end-to-side anastamoses of the femoral vein to the carotid artery was performed. Anastomoses were identified with a surgical staple. Where indicated, the test or control articles were applied to a uniform thickness and allowed to harden. Grafts were placed in both carotid arteries, with the procedures done in series.
Image analysis was performed by a qualified vascular surgeon who also analyzed the data. REF Images from angiography were captured on a VHS tape. Digital images were captured from this tape and saved after which they were evaluated using NIH Image. The lumenal width of the native arterial segments proximal and distal to the vein grafts, and the proximal and distal anastomoses were measured. The percent stenoses of the anastomoses relative to the adjacent native arterial segment were reported.
Images were captured as described in section above, and were evaluated by NIH Image. The lumenal width of native arterial segments proximal and distal to the graft and the proximal and distal anastomoses were measured.

For data set [4] the following is noted: post-surgery.
Procedure: Animals received standard laboratory diet proscribed in QCOP B618, with supplements provided at the discretion of a veterinarian; water was available ad libitum.
Post-operative care was performed as described in QCOP B809, along with prophylactic administration of antibiotics (Sulfamethoxaxole and Trimethoprin); analgesics were supplied as described in QCOP B803. 7 days post surgery, animals received 250 mg/day aspirin. The wound site was debrided and temperature, heart rate and respiratory rates were monitored daily the week following surgery. Angiography of the carotid sites was performed following surgery and monthly thereafter. Intravascular ultrasound (IVUS) was used to examine the vein grafts in 10 animals at the 12 week endpoint of the study.
[5] abbreviates: pooled Paclitaxel groups (4 dogs, 8 vessels).
Where [6] appears, read: histology, 12 weeks, pooled Paclitaxel groups (4 dogs, 8 vessels).
Where [7] appears, read: angiography, 12 weeks, pooled Paclitaxel groups (4 dogs, 8 vessels).

As for `CC(=O)O[C@H]1C(=O)[C@@]2(C)[C@H]([C@H](OC(=O)c3ccccc3)[C@]3(O)C[C@H](OC(=O)[C@H](O)[C@@H](NC(=O)c4ccccc4)c4ccccc4)C(C)=C1C3(C)C)[C@]1(OC(C)=O)CO[C@@H]1C[C@@H]2O` [Paclitaxel ®, paclitaxel], in data set [1], the “Difference between control, vehicle and Paclitaxel treatment groups in femoral lumenal width (statement in words)” value is listed as “no significant difference”. Besides, in data set [1] (setting [5]), the “Least Lumenal Width of Balloon-Injured Segments Relative to Native Vessel ± Paclitaxel (Mean ± s.d)” value was 1.32 ± 0.47 mm and the “Men Lumenal Width of Balloon-Injured Segments Relative to Native Vessel ± Paclitaxel (Mean ± s.d.)” value is reported as 1.52 ± 0.24 mm. In data set [2] (setting [6]), the “Intima area of femoral artery in regions of intimal hyperplasia ± Paclitaxel (Mean ± s.d.)” value is 1.95 ± 1.00 mm^2, the “Intima: Media Ratio ± Paclitaxel” value was found to be 0.56 ± 0.23, the “Lumen area of femoral artery in regions of intimal hyperplasia ± Paclitaxel (Mean ± s.d)” value is on record as 4.98 ± 1.05* mm^2 and the “Media area of femoral artery in regions of intimal hyperplasia ± Paclitaxel (Mean ± s.d.)” value came to 3.38 ± 0.84 mm^2. For the same molecule, in data set [2] (morphometric analysis of histology, femoral sections), the “Change in intimal: medial ratio (statement in words)” value is recorded as “absence of changes”. For the same molecule, the “Larger lumen width versus no Paclitaxel” value in data set [2] (morphometric analysis of histology, femoral sections with largest stenotic response, p</=0.06) came out at 44%. Moreover, the “Stenosis at anastomotic sites of carotid grafts (statement in words)” value in data set [3] (angiography at the 12 week endpoint) is “limited stenosis at the proximal and distal anastomotic sites”. Further, in data set [3] (setting [7]), the “Per Cent Stenoses of Carotid Grafts ± Paclitaxel, Distal Anastomotic Site (mean ± s.d.)” value was 1.1 ± 2.2% and the “Per Cent Stenoses of Carotid Grafts ± Paclitaxel, Proximal Anastomotic Site (mean ± s.d)” value was 5.9 ± 6.5%. The “Subcutaneous hematomas at the carotid site (animals affected/animals)” value in data set [4] (lesions resolved with time) is 4/8. The “Hematoma at the femoral site (animals affected/animals)” value in data set [4] (reduced in size with time and healed well) was 2/8.
